Measured values from patent publication US20260250318A1, “COMPOSITIONS AND METHODS FOR CROSSING THE BLOOD BRAIN BARRIER” (VOYAGER THERAPEUTICS, INC., priority 2022, published 2026).

Experiments:
Details in all cases: synthetic library passage 3, intravenous, relative to wild-type AAV9
[1] = system: brain, spinal cord, and DRG of the NHPs; test: NGS fold enrichment of synthetic library (passage 3) in NHPs, first cross-species screen; assay type: in vivo, cynomolgus macaques (Macaca fascicularis)
Procedure, shortened: (§1)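 Fold enrichment versus wild-type AAV9 was derived by NGS of RT-PCR-amplified RNA from nervous tissue, collected e.g. 28 days after IV dosing […]. The library (passage 3) was given to two NHPs aged 2-4 years and to 6-8-week BALB/c and C57Bl/6 mice (n=3 each).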

[2] = system: brain; test: NGS fold enrichment of synthetic library (passage 3) in BALB/c mice, first cross-species screen; assay type: in vivo
Procedure, shortened: as §1

[3] = system: brain; test: NGS fold enrichment of synthetic library (passage 3) in C57Bl/6 mice, first cross-species screen; assay type: in vivo
Procedure, shortened: as §1

[4] = RNA from spinal cord of NHPs, NGS
[5] = RNA from brain of BALB/c mice, NGS
[6] = RNA from brain of C57Bl/6 mice, NGS

Row | Sequence | Fold enrichment over AAV9 in the brain of NHPs ([1]; RNA NGS, brain of NHPs) [fold] | Fold enrichment over AAV9 in the spinal cord of NHPs ([1]; RNA NGS, spinal cord of NHPs) [fold] | Fold enrichment over AAV9 in the brain of Mice (BALB/c) ([2]; RNA NGS, brain of BALB/c mice) [fold] | Fold enrichment over AAV9 in the brain of Mice (C57Bl/6) ([3]; RNA NGS, brain of C57Bl/6 mice) [fold] | Fold enrichment over AAV9 in the brain of NHPs ([1]; RNA from brain of NHPs, NGS) [fold] | Fold enrichment over AAV9 in the spinal cord of NHPs [1, 4] [fold] | Fold enrichment over AAV9 in the brain of Mice (BALB/c) [2, 5] [fold] | Fold enrichment over AAV9 in the brain of Mice (C57Bl/6) [3, 6] [fold]
1 | GSFSMHTHGQNQQT | 2.535 | 0.118 | 0.693 | 1.027 | – | – | – | –
2 | GSFYPSSTGQNQQT | 2.047 | 2.374 | 0.277 | 0.420 | – | – | – | –
3 | GSGAITHMPQNQQT | 1.695 | 1.681 | 0.411 | 0.647 | – | – | – | –
4 | GSGAMPSHGQNQQT | 1.915 | 0.000 | 0.912 | 1.142 | – | – | – | –
5 | GSGASESHRQNQQT | – | – | – | – | 1.350 | 0.850 | 0.313 | 0.325
6 | GSGASRMSIQNQQT | 1.045 | 0.111 | 0.417 | 0.801 | – | – | – | –
7 | GSGAVHLTAQNQQT | – | – | – | – | 1.306 | 1.668 | 0.466 | 0.541
8 | GSGDDSRVGQNQQT | – | – | – | – | 1.172 | 0.191 | 0.156 | 0.466
9 | GSGDLRISPQNQQT | 2.012 | 16.207 | 0.237 | 0.620 | – | – | – | –
10 | GSGDLVVSTQNQQT | 3.874 | 1.177 | 0.273 | 0.411 | – | – | – | –
11 | GSGDRYQTLQNQQT | 1.897 | 1.075 | 0.318 | 0.645 | – | – | – | –
12 | GSGDSITGKQNQQT | 2.112 | 1.295 | 0.306 | 0.793 | – | – | – | –
13 | GSGDTLHMLQNQQT | 3.317 | 1.174 | 0.482 | 0.393 | – | – | – | –
14 | GSGEAARYEQNQQT | 1.020 | 0.000 | 0.125 | 0.107 | – | – | – | –
15 | GSGEKVHSGQNQQT | – | – | – | – | 1.289 | 0.062 | 0.671 | 0.862
16 | GSGERLHLTQNQQT | 1.885 | 1.456 | 0.245 | 0.387 | – | – | – | –
17 | GSGERSISVQNQQT | – | – | – | – | 1.264 | 1.619 | 0.173 | 0.598
18 | GSGEYSRSGQNQQT | 2.145 | 0.745 | 0.205 | 0.617 | – | – | – | –
19 | GSGFGPQTGQNQQT | 2.964 | 2.861 | 0.849 | 1.280 | – | – | – | –
20 | GSGFHTDSRQNQQT | 1.748 | 4.384 | 0.575 | 7.344 | – | – | – | –

Row | Sequence | Fold enrichment over AAV9 in the brain of NHPs ([1]; RNA NGS, brain of NHPs) [fold] | Fold enrichment over AAV9 in the spinal cord of NHPs ([1]; RNA NGS, spinal cord of NHPs) [fold] | Fold enrichment over AAV9 in the brain of Mice (BALB/c) ([2]; RNA NGS, brain of BALB/c mice) [fold] | Fold enrichment over AAV9 in the brain of Mice (C57Bl/6) ([3]; RNA NGS, brain of C57Bl/6 mice) [fold] | Fold enrichment over AAV9 in the brain of NHPs ([1]; RNA from brain of NHPs, NGS) [fold] | Fold enrichment over AAV9 in the spinal cord of NHPs [1, 4] [fold] | Fold enrichment over AAV9 in the brain of Mice (BALB/c) [2, 5] [fold] | Fold enrichment over AAV9 in the brain of Mice (C57Bl/6) [3, 6] [fold]
21 | GSGFLSDTRQNQQT | 1.566 | 45.953 | 0.575 | 0.473 | – | – | – | –
22 | GSGFNQRSEQNQQT | 2.121 | 4.491 | 0.758 | 1.770 | – | – | – | –
23 | GSGFPKSTEQNQQT | – | – | – | – | 1.376 | 2.058 | 0.194 | 0.610
24 | GSGFSHSMGKNQQT | – | – | – | – | 1.188 | 9.809 | 0.611 | 1.381
25 | GSGGGLQHNQNQQT | – | – | – | – | 1.163 | 4.098 | 0.778 | 1.137
26 | GSGGLDTRGQNQQT | 2.139 | 6.216 | 0.197 | 0.236 | – | – | – | –
27 | GSGGTSVHQQNQQT | 1.629 | 0.000 | 0.195 | 0.585 | – | – | – | –
28 | GSGGVTYQSQNQQT | 1.673 | 7.283 | 0.181 | 0.649 | – | – | – | –
29 | GSGHAAISQQNQQT | 1.742 | 2.373 | 0.520 | 1.211 | – | – | – | –
30 | GSGHAKAVGQNQQT | 1.081 | 4.357 | 0.824 | 0.703 | – | – | – | –
31 | GSGHGQVLSQNQQT | 2.213 | 12.133 | 0.661 | 1.880 | – | – | – | –
32 | GSGHIYVGIQNQQT | 2.178 | 6.428 | 0.337 | 0.989 | – | – | – | –
33 | GSGHLFQSGQNQQT | 1.057 | 0.615 | 0.386 | 0.751 | – | – | – | –
34 | GSGHLPQSAQNQQT | 2.803 | 7.828 | 0.496 | 0.826 | – | – | – | –
35 | GSGHMSDLRQNQQT | 1.073 | 4.291 | 0.328 | 0.555 | – | – | – | –
36 | GSGHMTYREKNQQT | 2.633 | 5.267 | 0.540 | 1.257 | – | – | – | –
37 | GSGHNQQVRTAPNT | 1.885 | 1.022 | 0.580 | 1.006 | – | – | – | –
38 | GSGHPYKAAQNQQT | – | – | – | – | 1.246 | 0.000 | 0.507 | 0.872
39 | GSGHSIRTDQNQQT | 3.074 | 15.600 | 0.148 | 0.229 | – | – | – | –
40 | GSGHSPLPQQNQQT | 1.562 | 0.556 | 0.247 | 0.387 | – | – | – | –
